The values that follow come from PubChem BioAssay AID464 (The Scripps Research Institute Molecular Screening Center, 2006).

The source made the active and inactive calls.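 The calls were made as follows: active = Compounds that kill half the cells at a concentration of 5 micromolar or below, from the fitted or estimated CC50; inactive = CC50 above 5 micromolar.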 Where only a bound is given, the exact number is not on record here.

This assay deals with Jurkat E6.1 viability, ATP luminescence, 48 h. In words: viability loss in Jurkat T cells – cell-based, ATP luminescence, 48 h, 60K MLSMR, cytotoxicity control, dose response (AID 464).
For orientation: CC50 means the concentration that lowers cell viability or growth by half. In the case of `Cc1ccc2[nH]c(=O)c(CN(Cc3ccco3)C(=O)c3ccncc3)cc2c1`, the CC50 is 6.52 µM (inactive).

Turning to `Cc1cccc(N2CCN(C(=O)c3ccc(Cl)c(S(=O)(=O)NCc4ccco4)c3)CC2)c1C`, the CC50 is 9.8 µM (inactive).

In the case of `CCCCCOC(=O)c1[nH]c2c(c1C)C(=O)CC(c1ccco1)C2` (configuration not stated), the CC50 is 0.084 µM.

With `O=c1c2[nH]c3ccc(F)cc3c2ncn1CCCn1ccnc1`, the CC50 was 17.1 µM (inactive).

Regarding `CNc1nc(C)c(C(=O)OCc2ccccc2)s1`, the CC50 was 9.81 µM (inactive).

As for `COc1cc(C2C3=C(Nc4ncnn42)c2ccccc2CC3)cc(OC)c1OC` (configuration not stated), the half-maximal cytotoxic concentration (CC50) was 3.67 µM.

In the case of `COc1ccccc1N1CCN(C(=O)CSc2nnc3n2C(C)(C)Cc2ccccc2-3)CC1`, the CC50 was 4.67 µM.

As to `Cc1ccnc(NC(=O)CCCOc2cc(=O)n(C)c3ccccc23)c1`, the CC50 is 5.58 µM (inactive).

On to `O=C(O)C1CC=CCC1C(=O)Nc1ccc(S(=O)(=O)N2CCCc3ccccc32)cc1` (configuration not stated), for which the CC50 was > 40 µM (inactive).

With `CCOC(=O)c1[nH]c(C)c(C(=O)c2cc(F)ccc2F)c1C`, the CC50 is 0.204 µM.

Regarding `CSc1nnc2c3ccccc3n(CCc3ccccc3)c2n1`, the CC50 is 16.9 µM (inactive).

As to `Cc1cc(N2CCN(c3nc4ccccc4s3)CC2)n2ncnc2n1`, the CC50 was 8.41 µM (inactive).

Regarding `Cc1cc(C)n2nc(SCC(=O)c3cc(C)n(-c4cc(C)on4)c3C)nc2n1`, the CC50 is 29.4 µM (inactive).

Take `Cc1cc(C(=O)Nc2sc3c(c2C#N)CCC3)no1`: the CC50 is 6.7 µM (inactive).

`Cc1ccc(C)c(-n2nnnc2Sc2nnnn2-c2ccccc2)c1`: the CC50 was 5.87 µM (inactive).

On to `N#Cc1c(NC(=O)CSc2nc(N)cc(=O)[nH]2)sc2c1CCCCCC2`, for which the CC50 is 6.25 µM (inactive).

With `CC(O)CNc1nc2c(c(=O)n(C)c(=O)n2C)n1Cc1cccc(Br)c1` (configuration not stated), the CC50 was 22.5 µM (inactive).

Take `Clc1ccc(C2=Nn3c(nnc3-c3n[nH]c4c3CCC4)SC2)cc1`: the CC50 is 1.64 µM.

In the case of `CCOC(=O)Nc1c(C(=O)OC)[nH]c2cc(OC)ccc12`, the CC50 is 7.94 µM (inactive).

Turning to `Cc1cc(C)cc(NC2=NC3(CCCCC3)N=C(N)N2)c1`, the half-maximal cytotoxic concentration (CC50) is 4.97 µM.

`O=C(Nc1ccc2oc(Cc3ccc(Cl)cc3)nc2c1)c1cccnc1`: the CC50 was 27.8 µM (inactive).

On to `Nc1c(C(=O)Nc2ccc3c(c2)OCCO3)nnn1CCc1ccccc1`, for which the CC50 is 4.23 µM.

In the case of `O=S(=O)(NCc1ccncc1)c1ccc(Br)s1`, the 50% cytotoxic concentration (CC50) was 1 µM.

`CCCCN(CC)S(=O)(=O)c1ccc(C(=O)Nc2nnc(-c3cccs3)o2)cc1`: the CC50 is 13.9 µM (inactive).

With `Cn1cc(/C=N/n2cnc3scc(-c4ccccc4)c3c2=O)c2ccccc21`, the CC50 was 1.1 µM.

For `Cc1onc(-c2ccccc2Cl)c1C(=O)N1CCN(c2cccc(Cl)c2)CC1`, the CC50 was 0.832 µM.

On to `COc1ccc(N(CC(=O)Nc2cc(Cl)ccc2OC)S(=O)(=O)c2c(C)noc2C)cc1`, for which the CC50 is 2.97 µM.

Turning to `Cn1ncnc2c(=O)n(C)c(=O)nc1-2`, the CC50 was 2.06 µM.

As to `O=C(c1ccncc1)N(Cc1cc2ccccc2[nH]c1=O)C1CCCCC1`, the CC50 was 5.31 µM (inactive).

With `Cc1nc2ccccc2n1CC(=O)NCc1ccccc1`, the CC50 was 5.34 µM (inactive).

With `O=c1cc(CSc2nnc(-c3cccs3)n2Cc2ccccc2)nc2sc3ccccc3n12`, the CC50 is 4.96 µM.

Take `COc1ccc(NS(=O)(=O)c2cc(OC)ccc2NC(=O)c2cc(C)oc2C)cc1`: the CC50 was 2.25 µM.

With `O=C(Cn1cnc2c(cnn2-c2ccc(F)cc2)c1=O)NCc1ccco1`, the CC50 is > 4.4 µM (inactive).

Turning to `COC(=O)c1cc2ccsc2n1CC(=O)Nc1cc(Cl)ccc1OC`, the CC50 is > 4.4 µM (inactive).

For the compound `COc1ccccc1S(=O)(=O)Cc1ccc(C(=O)N2CCN(c3cccc(Cl)c3)CC2)o1`, the CC50 is 3.75 µM.

Take `COC(=O)Nc1ccc(S(=O)(=O)N2CCCc3ccccc32)cc1`: the CC50 is 1.06 µM.

In the case of `COc1ccc(C2CC(c3c(O)cc(C)oc3=O)=NCCS2)c(OC)c1` (configuration not stated), the CC50 was 0.318 µM.
